Results taken from PMC12039421 (Animal Cells and Systems, 2025).

Experiments:
human ERβ-LBD = human ERβ-LBD (Homo sapiens, UniProt Q92731); assay: Isothermal titration calorimetry; format: binding
human ERα-LBD = target: T1, human ERα-LBD (Homo sapiens, UniProt P03372); assay: biochemical; format: binding
T1 sequence (P03372 304-554): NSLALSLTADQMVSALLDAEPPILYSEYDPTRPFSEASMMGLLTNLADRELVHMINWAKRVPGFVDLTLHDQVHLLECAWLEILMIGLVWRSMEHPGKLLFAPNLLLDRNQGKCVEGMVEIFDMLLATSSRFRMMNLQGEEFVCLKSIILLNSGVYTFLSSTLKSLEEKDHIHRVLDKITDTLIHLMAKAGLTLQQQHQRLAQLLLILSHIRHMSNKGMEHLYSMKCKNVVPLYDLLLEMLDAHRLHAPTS

ERα [1] = conditions: cited from earlier work
ERα [2] = conditions: ref ICCVAM [2003]; cited from earlier work
[3] = ITC, 25 °C, one binding site model

Chain of human ERβ-LBD (Q92731 264-498): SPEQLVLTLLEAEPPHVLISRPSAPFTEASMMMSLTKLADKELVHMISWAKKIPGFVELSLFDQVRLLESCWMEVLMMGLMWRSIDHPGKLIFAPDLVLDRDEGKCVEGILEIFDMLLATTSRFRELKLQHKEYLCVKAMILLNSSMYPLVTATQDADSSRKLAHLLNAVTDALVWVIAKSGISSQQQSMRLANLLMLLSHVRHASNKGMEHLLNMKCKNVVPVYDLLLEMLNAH

CC(C)(C)CC(C)(C)c1ccc(O)cc1 [4-tert-Octylphenol]
Kd (human ERβ-LBD): 15.9 µM

CCC(C)(c1ccc(O)cc1)c1ccc(O)cc1 [Bisphenol B]
Kd (human ERα-LBD): 112 µM
Kd (human ERβ-LBD): 51.3 µM

CC(C)C(=O)Nc1ccc([N+](=O)[O-])c(C(F)(F)F)c1 [Flutamide]
Kd (ER α) (human ERα-LBD; [3]): no binding
Kd (ER β) (human ERβ-LBD; [3]): no binding
activity in previous TG 455 (in words) (ERα [1]; previous TG 455, ref Zacharia [2017]): no activity

C[C@]12CC[C@H]3[C@@H](CCC4=CC(=O)CC[C@@]43C)[C@@H]1CC[C@@H]2O [testosterone]
transcriptional response in TG 455 (in words) (ERα [1]; ref ICCVAM [2003]): fails to induce downstream transcriptional responses
ER binding in TG 493 (in words) (ERα [2]): may bind to the ER
